{"source": "ChEMBL document CHEMBL3822389", "about": "“New insights into 3-(aminomethyl)naphthoquinones: Evaluation of cytotoxicity, electrochemical behavior and search for structure-activity correlation” (Bioorg Med Chem Lett, 2016)", "key": {"MDA-MB-435": {"system": "MDA-MB-435", "experiment": "Cytotoxicity against human MDA-MB-435 cells after 72 hrs by MTT assay", "type": "functional, cell-based", "conditions": "mda-mb-435"}, "[1]": {"experiment": "Cytotoxicity against human HCT8 cells after 72 hrs by MTT assay", "type": "functional, cell-based, HCT-8", "conditions": "hct-8"}, "[2]": {"experiment": "Cytotoxicity against human SF295 cells after 72 hrs by MTT assay", "type": "functional, cell-based, SF-295", "conditions": "Homo sapiens, SF-295, 72 h"}, "[3]": {"experiment": "Cytotoxicity against human HL60 cells after 72 hrs by MTT assay", "type": "functional, cell-based, HL-60", "conditions": "Homo sapiens, HL-60, 72 h"}}}
{"smiles": "O=C1C(O)=C(C(NCc2ccccc2)c2ccccc2O)C(=O)c2ccccc21", "note": "(centres undefined)", "values": [{"measurement": "IC50", "setting": "MDA-MB-435", "value": 18.9, "unit": "µM"}, {"measurement": "IC50", "setting": "[1]", "value": 15.6, "unit": "µM"}, {"measurement": "IC50", "setting": "[2]", "value": 23.1, "unit": "µM"}, {"measurement": "IC50", "setting": "[3]", "value": 3.9, "unit": "µM"}]}
